A short description of data set [1]: Cytotoxicity against mouse NIH/3T3 cells assessed as cell viability at 10 uM after 48 hrs by MTT assay relative to control. The data set is classed as cell-based, NIH3T3. The settings on record: read-out: Activity.
Data set [2] is described as follows: Cytotoxicity against mouse NIH/3T3 cells assessed as cell viability at 50 uM after 48 hrs by MTT assay relative to control. The data set is classed as cell-based, NIH3T3. The settings on record: read-out: Activity. (In general: Formazan colour is commonly taken as a measure of viable cells.)
Data set [3] is described as follows: Cytotoxicity against human HepG2 cells assessed as cell viability at 5 uM after 48 hrs by MTT assay relative to control. The data set is classed as cell-based. The settings on record: read-out: Activity.
Data set [4] can be described thus: Cytotoxicity against human MCF7 cells assessed as cell viability at 5 uM after 48 hrs by MTT assay relative to control. The data set is classed as cell-based. The settings on record: read-out: Activity.
Data set [5] in a line: Cytotoxicity against human HepG2 cells assessed as cell viability at 10 uM after 48 hrs by MTT assay relative to control. The settings on record: read-out: Activity. The data set is classed as cell-based.
The species entered for data set [6] is Mus musculus. The experiment in a line: Modulation of OGT/OGA in mouse NIH/3T3 cells assessed as increase in O-GlcNAcylation at 5 to 100 uM by Western blot analysis. The data set is classed as cell-based. (A western blot detects proteins with antibodies after separation by electrophoresis.)
The nature of data set [7]: Cytotoxicity against human HepG2 cells assessed as cell viability at 50 uM after 48 hrs by MTT assay relative to control. The settings on record: read-out: Activity. The data set is classed as cell-based.
A short description of data set [8]: Cytotoxicity against mouse NIH/3T3 cells assessed as cell viability at 100 uM after 48 hrs by MTT assay relative to control. The settings on record: read-out: Activity. The data set is classed as cell-based, NIH3T3.
Data set [9] is described as follows: Cytotoxicity against human HeLa cells assessed as cell viability at 5 uM after 48 hrs by MTT assay relative to control. The data set is classed as cell-based. The settings on record: read-out: Activity.
The nature of data set [10]: Cytotoxicity against human HeLa cells assessed as cell viability at 10 uM after 48 hrs by MTT assay relative to control. The settings on record: read-out: Activity. The data set is classed as cell-based.
A short description of data set [11]: Cytotoxicity against human MCF7 cells assessed as cell viability at 10 uM after 48 hrs by MTT assay relative to control. The data set is classed as cell-based. The settings on record: read-out: Activity.
Data set [12] can be described thus: Cytotoxicity against human HeLa cells assessed as cell viability at 50 uM after 48 hrs by MTT assay relative to control. The data set is classed as cell-based. The settings on record: read-out: Activity.
Data set [13] in a line: Cytotoxicity against human MCF7 cells assessed as cell viability at 20 uM after 48 hrs by MTT assay relative to control. The settings on record: read-out: Activity. The data set is classed as cell-based.
A short description of data set [14]: Cytotoxicity against mouse NIH/3T3 cells assessed as cell viability at 20 uM after 48 hrs by MTT assay relative to control. The data set is classed as cell-based, NIH3T3. The settings on record: read-out: Activity.
A short description of data set [15]: Cytotoxicity against human HepG2 cells assessed as cell viability at 20 uM after 48 hrs by MTT assay relative to control. The data set is classed as cell-based. The settings on record: read-out: Activity.
A short description of data set [16]: Cytotoxicity against human MCF7 cells assessed as cell viability at 100 uM after 48 hrs by MTT assay relative to control. The data set is classed as cell-based. The settings on record: read-out: Activity.
Data set [17] in a line: Cytotoxicity against human MCF7 cells assessed as cell viability at 50 uM after 48 hrs by MTT assay relative to control. The data set is classed as cell-based. The settings on record: read-out: Activity.
The nature of data set [18]: Cytotoxicity against human HeLa cells assessed as cell viability at 100 uM after 48 hrs by MTT assay relative to control. The data set is classed as cell-based. The settings on record: read-out: Activity.
In data set [19] the target is T1, Protein O-GlcNAcase (Mus musculus) (UniProt Q9EQQ9).
T1 sequence (whole entry): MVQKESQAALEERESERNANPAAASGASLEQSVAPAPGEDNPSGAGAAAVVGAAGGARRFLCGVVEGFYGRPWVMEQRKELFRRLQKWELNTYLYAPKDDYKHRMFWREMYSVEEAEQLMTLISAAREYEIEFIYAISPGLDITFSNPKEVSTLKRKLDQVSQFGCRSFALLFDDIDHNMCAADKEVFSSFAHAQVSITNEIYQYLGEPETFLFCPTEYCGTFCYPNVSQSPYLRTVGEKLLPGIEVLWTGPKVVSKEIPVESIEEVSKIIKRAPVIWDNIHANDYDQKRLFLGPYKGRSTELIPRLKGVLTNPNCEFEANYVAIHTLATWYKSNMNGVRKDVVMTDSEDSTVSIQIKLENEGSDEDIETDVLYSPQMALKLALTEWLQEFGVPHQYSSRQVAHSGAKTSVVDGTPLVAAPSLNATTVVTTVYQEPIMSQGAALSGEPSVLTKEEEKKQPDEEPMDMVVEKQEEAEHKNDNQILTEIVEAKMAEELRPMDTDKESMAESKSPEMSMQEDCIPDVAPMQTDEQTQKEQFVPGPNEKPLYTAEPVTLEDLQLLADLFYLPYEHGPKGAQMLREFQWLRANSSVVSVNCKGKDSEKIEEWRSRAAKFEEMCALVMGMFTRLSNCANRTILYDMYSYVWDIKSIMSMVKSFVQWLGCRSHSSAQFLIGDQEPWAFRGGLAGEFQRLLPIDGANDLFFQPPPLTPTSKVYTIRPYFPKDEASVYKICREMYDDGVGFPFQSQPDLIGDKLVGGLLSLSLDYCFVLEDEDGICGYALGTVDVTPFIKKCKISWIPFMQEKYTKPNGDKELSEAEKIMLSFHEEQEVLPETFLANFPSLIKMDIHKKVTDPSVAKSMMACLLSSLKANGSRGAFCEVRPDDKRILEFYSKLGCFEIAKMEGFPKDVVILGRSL
Put plainly: Inhibition of OGA in mouse NIH/3T3 cells assessed as increase in O-GlcNAcylation at 20 uM after 24 hrs by Western blot analysis. The data set is classed as cell-based.

A short description of data set [20]: Cytotoxicity against human HeLa cells assessed as cell viability at 20 uM after 48 hrs by MTT assay relative to control. The data set is classed as cell-based. The settings on record: read-out: Activity.
Data set [21] is described as follows: Cytotoxicity against human HepG2 cells assessed as cell viability at 100 uM after 48 hrs by MTT assay relative to control. The data set is classed as cell-based. The settings on record: read-out: Activity.
A short description of data set [22]: Cytotoxicity against mouse NIH/3T3 cells assessed as cell viability at 5 uM after 48 hrs by MTT assay relative to control. The data set is classed as cell-based, NIH3T3. The settings on record: read-out: Activity.
Data set [23] in a line: Inhibition of lysosomal hexosaminidase (unknown origin). Also noted: species or system Homo sapiens.

Calls of active or inactive are those of the source. No cut-off for these calls is given here.

As for `CC(=O)OC[C@H]1OC(OC(C)=O)[C@H](NC(=O)C(F)(F)F)[C@@H](OC(C)=O)[C@@H]1OC(C)=O` (stereo not given in full), the viability at 48 h, 10 µM in data set [1] came out at 94.1%; in data set [5], 94.7%; in data set [10], 96.2%; in [11], 97.4%. Further, the viability at 48 h, 50 µM in [2] is 61.3%; in data set [7], 91.2%; in data set [12], 84.1%; in data set [17], 96.4%. For the same compound, the viability at 48 h, 5 µM came out at 96.9% in [3], 98.3% in [4], 101% in [9] and 97.6% in data set [22]. The result in [6] was Active. Besides, the viability at 48 h, 100 µM in data set [8] is 35.9%; in data set [16], 90.5%; in [18], 76.1%; in [21], 84.9%. Moreover, the viability at 48 h, 20 µM came to 97.1% in data set [13], 85.6% in data set [14], 94.2% in data set [15] and 96% in data set [20]. Also, in data set [19], the inhibition entry was “Active”.

With `CC(=O)N[C@H]1/C(=N/OC(=O)Nc2ccccc2)O[C@H](CO)[C@@H](O)[C@@H]1O` [PUGNAC], the Ki in data set [23] is 30 to 40 nM. Also, in data set [19], the inhibition result is “Active”.

Take `CCNC1=N[C@@H]2[C@@H](O)[C@H](O)[C@@H](CO)O[C@@H]2S1`: the inhibition result in data set [19] is “Active”.

One may read the Ki as a dissociation constant, usually derived from enzyme kinetics or from competition with a known ligand. The low end stands for tighter binding, the high end for weaker binding.

The values are drawn from ChEMBL document CHEMBL4422670, “Ac4GlcNAcF3, an OGT-tolerated but OGA-resistant regulator for O-GlcNAcylation” (Bioorg Med Chem Lett, 2019).
